In US20260137668A1, “EZH2 INHIBITION THERAPIES FOR THE TREATMENT OF BRCA1-ASSOCIATED PROTEIN (BAP1) MUTATED CANCERS” (Constellation Pharmaceuticals, Inc., priority 2022, published 2026):

Experiments:
[1] = test system: pleural or peritoneal BAP1 loss mesothelioma; experiment: human clinical phase 2 study, Compound 1 monotherapy, response by cancer cohort; type: in vivo; conditions: intermediate cut-off date
Experimental: As part of a human clinical phase 2 study, subjects with pleural or peritoneal BAP1 loss mesothelioma were administered 350 mg/day Compound 1 for up to about 7.5 months (FIG. 1). Compound 1 was administered orally as a single agent (monotherapy). The cancers in each subject were known to have BAP1 mutations as determined by next generation sequencing (NGS) or local immunohistochemistry (IHC) testing prior to treatment. A complete response is characterized as disappearance of all lesions, a partial response is characterized as at least a 30% decrease in the sum of the longest diameter (LD) of target lesions, taking as reference the baseline sum LD; stable disease is characterized as neither sufficient shrinkage to qualify for partial response nor sufficient increase to qualify for progressive disease, taking as reference the smallest sum diameters; and progressive disease is characterized as at least a 20% increase in the sum of the LD of target lesions, taking as reference the smallest sum LD recorded since the treatment started or the appearance of one or more new lesions.

[2] = test system: pleural mesothelioma PDX models with BAP1 alterations; experiment: panel of 6 PDX models of pleural mesothelioma with BAP1 alterations; type: in vivo, mice; conditions: 75 mg/kg p.o. QD
Experimental: (§1) Compound 1 was evaluated in 6 patient-derived xenograft (PDX) models of pleural mesothelioma with BAP1 alterations (Table 3) implanted subcutaneously in immunodeficient mice (NSG mice in the case of tumor model PXF 2328, NMRI nu/nu mice for all other tumor models). Each experiment had two groups of generally five mice each enrolled at tumor volumes in the range of 53.9-198.9 mm^3. The first group was a vehicle control group, while the second group was treated with Compound 1, administered orally (p.o.) once daily (QD) at a dose level of 75 mg/kg. The duration of the experiments ranged between 30 and 65 days.
(§2) Antitumor efficacy of all groups was assessed using the vehicle control group as a reference. Tumor growth inhibition was determined by the comparison of tumor growth in the test groups with the vehicle control group and is expressed as the maximum tumor growth inhibition (TGI) value in percent. The statistical significance of differences between test and control groups was assessed using the non-parametric U-test.

PXF 2328 = experiment: pleural mesothelioma PDX model, tumor growth inhibition; type: in vivo; conditions: PXF 2328 implanted in NSG mice, 75 mg/kg p.o. QD
Experimental: as §1, §2

H2452 = experiment: CellTiter-Glo 2.0 long-term cell viability assay; type: cell-based; conditions: Homo sapiens, H2452, BAP1 mutant
Experimental: (§3) The ability of Compound 1 to selectivity suppress mesothelioma cancer cell viability was assessed in a panel of cell lines after 7, 14 and 21 days of treatment with Compound 1. Cell viability was determined using CellTiter-Glo®2 luminescent cell viability assay.
(§4) Cell culture conditions. MSTO-211H, H2052, H2452, H28, H226 cell lines were obtained from ATCC (Manassas, VA) and were grown in media as recommended by the vendor. For long-term assays, cells were plated in 96-well plates containing. Compound 1. Cell lines were treated with a dose titration of Compound 1 starting at 2 μM top concentration.
(§5) Cellular assay—assessment of cell viability. Relative cell numbers were assessed by CellTiter-Glo® 2.0 luminescent cell viability assay (Promega Catalog #G9243) using a Perkin Elmer EnVision Alpha Reader (Model #2104, Waltham, MA). 50 μL of CellTiter-Glo® 2.0 reagent was added to each well containing 100 μL cell suspension and incubated for 30 min at RT with shaking at low speed. GraphPad Prism was used for curve fitting and GI50 determinations.

MSTO-211H = experiment: CellTiter-Glo 2.0 long-term cell viability assay; type: cell-based; conditions: Homo sapiens, BAP1 wildtype
Experimental: as §3, §4, §5

H226 = experiment: CellTiter-Glo 2.0 long-term cell viability assay; type: cell-based; conditions: Homo sapiens, H226, BAP1 mutant
Experimental: as §3, §4, §5

H2052 = experiment: CellTiter-Glo 2.0 long-term cell viability assay; type: cell-based; conditions: Homo sapiens, H2052, BAP1 wildtype
Experimental: as §3, §4, §5

H28 = experiment: CellTiter-Glo 2.0 long-term cell viability assay; type: cell-based; conditions: Homo sapiens, H28, BAP1 mutant
Experimental: as §3, §4, §5

PXF 680 = experiment: pleural mesothelioma PDX model, tumor growth inhibition; type: in vivo, NMRI nu/nu mice; conditions: PXF 680, 75 mg/kg p.o. QD; statistically significant reduction in tumor volume vs vehicle (U-test)
Experimental: as §1, §2

PXF 537 = experiment: as above; type: in vivo, NMRI nu/nu mice; conditions: PXF 537, 75 mg/kg p.o. QD; statistically significant reduction in tumor volume vs control
Experimental: as §1, §2

PXF 541 = experiment: as above; type: in vivo, NMRI nu/nu mice; conditions: PXF 541, 75 mg/kg p.o. QD; statistically significant reduction in tumor volume vs vehicle (U-test)
Experimental: as §1, §2

PXF 2443 = experiment: as above; type: in vivo, NMRI nu/nu mice; conditions: PXF 2443, 75 mg/kg p.o. QD; without a statistically significant reduction in tumor volume
Experimental: as §1, §2

PXF 1118 = experiment: as above; type: in vivo, NMRI nu/nu mice; conditions: PXF 1118, 75 mg/kg p.o. QD; without a statistically significant reduction in tumor volume
Experimental: as §1, §2

[3] = 350 mg/day oral monotherapy, efficacy evaluable patients N = 9

SMILES: COC1CN([C@H]2CC[C@H]([C@@]3(C)Oc4c(Cl)cc(C(=O)NCc5c(SC)cc(C)[nH]c5=O)c(C)c4O3)CC2)C1 [Compound 1, (R)-7-chloro-2-((1r,4R)-4-(3-methoxyazetidin-1-yl)cyclohexyl)-2,4-dimethyl-N-((6-methyl-4-(methylthio)-2-oxo-1,2-dihydropyridin-3-yl)methyl)benzo[d][1,3]dioxole-5-carboxamide]
- Complete response [1, 3]: 0 n (%)
- Partial response [1, 3]: 2 (22.2) n (%)
- Progressive disease [1, 3]: 3 (33.3) n (%)
- Stable disease [1, 3]: 4 (44.4) n (%)
- patients showing (partial) response and stable disease [1]: > 60%
- PDX models with a relevant TGI of greater than 50% [2]: 4 out of the 6
- effect on tumor growth (PXF 2328): inactive
- GI50 (H2452; NCI-H2452, 168 h, Day 7): > 2 µM
- GI50 (H2452; NCI-H2452, 336 h, Day 14): 0.006 µM
- GI50 (H2452; NCI-H2452, 504 h, Day 21): 0.005 µM
- GI50 (MSTO-211H; 168 h, Day 7): > 2 µM
- GI50 (MSTO-211H; 336 h, Day 14): > 2 µM
- GI50 (MSTO-211H; 504 h, Day 21): > 2 µM
- GI50 (H226; NCI-H226, 168 h, Day 7): > 2 µM
- GI50 (H226; NCI-H226, 336 h, Day 14): > 2 µM
- GI50 (H226; NCI-H226, 504 h, Day 21): > 2 µM
- GI50 (H2052; NCI-H2052, 168 h, Day 7): > 2 µM
- GI50 (H2052; NCI-H2052, 336 h, Day 14): > 2 µM
- GI50 (H2052; NCI-H2052, 504 h, Day 21): > 2 µM
- GI50 (H28; NCI-H28, 168 h, Day 7): > 2 µM
- GI50 (H28; NCI-H28, 336 h, Day 14): 0.234 µM
- GI50 (H28; NCI-H28, 504 h, Day 21): 0.045 µM
- maximum tumor growth inhibition (TGI) (PXF 680): > 100%
- effect on tumor growth (PXF 537): almost stasis
- maximum tumor growth inhibition (TGI) (PXF 541): > 100%
- effect on tumor growth (PXF 2443): slowed growth
- effect on tumor growth (PXF 1118): slowed growth
